Test results from patent US20070149509A1, “Use of vitamin e” (priority 2003, published 2007).

System: melatonin receptor type 1 gene (MT1)
Experiment: Impact of vitamin E on melatonin receptor expression in rat brain (high-density oligonucleotide microarrays)
Format: in vivo
Details: male rats, vitamin E containing diet vs vitamin E deficient diet, monitored over 9 months at 4 time-points, brain/hippocampus
Method: The impact of vitamin E on melatonin receptor expression in rat hippocampus was determined as follows: Two groups of male rats were randomly assigned to either a VE sufficient diet or to a diet deficient in VE for 270 days. High-density oligonucleotide microarrays comprising over 7,000 genes were used to assess the transcriptional response of the brain. Differential gene expression was monitored over a period of 9 months, at 4 different time-points.

vitamin E
melatonin receptor type 1 gene (MT1) expression in the brain: strongly and consistently up-regulated
